# Reference: patent US12617783B2, “Heterocyclic GLP-1R agonists” (BIOMEA FUSION, INC., priority 2024, dated 2026)
# Target: T1, human GLP-1R (Homo sapiens, UniProt P43220)
# T1 construct: host or cells: HEK293
# Assay: GLP-1R cAMP assay (Example B1a, HTRF, 30 min at room temperature)
# Type: cell-based
# Conditions: Table 1d, stereoisomer pairs; read-out: EC50
# Protocol: Assay was carried out with HEK293 expressing human GLP-1R using HTRF assay, developed by Wuxi Apptec. The method is a competitive assay between native cAMP produced by the cells and exogenous cAMP labeled with a proprietary dye d2. The tracer binding is visualized by a mAb anti-cAMP labeled with Cryptate. The signal (i.e. energy transfer) is inversely proportional to the concentration of CAMP in either standard or experimental sample. Compounds were tested in the absence of BETP. Ten microliter of cell suspension in assay buffer (5 mM HEPES, 500 μM IBMX, 0.1% BSA) were added to each well (1,000 cells per well) in a low volume 384-well plate for the assay. Serially diluted compounds were added in 100 nL volume to duplicate wells, by Labcyte Echo. GLP-1 (7-37) was used as positive control. Assay plate was incubated for 30 minutes at room temperature. Stock of cAMP Detection Solution was prepared by mixing 38 parts of cAMP lysis buffer, 1 part of cAMP-D2, 1 part of anti-cAMP cryptate reagent (Cisbio #62AM4PEJ). Ten microliter of the cAMP Detection Solution was added to each well, and the assay plate was incubated for 1 hour at room temperature in the dark. Plates were read on Envision plate reader. The data were analyzed by ScreenUltra in Dotmatics, with % activation expressed using following formula: (Well data−negative control)/(postive control−negative control)*100. Dose response curves were plotted and EC50 values calculated by non-linear regression using 4-parameter fit.
# T1 sequence (P43220 24-463): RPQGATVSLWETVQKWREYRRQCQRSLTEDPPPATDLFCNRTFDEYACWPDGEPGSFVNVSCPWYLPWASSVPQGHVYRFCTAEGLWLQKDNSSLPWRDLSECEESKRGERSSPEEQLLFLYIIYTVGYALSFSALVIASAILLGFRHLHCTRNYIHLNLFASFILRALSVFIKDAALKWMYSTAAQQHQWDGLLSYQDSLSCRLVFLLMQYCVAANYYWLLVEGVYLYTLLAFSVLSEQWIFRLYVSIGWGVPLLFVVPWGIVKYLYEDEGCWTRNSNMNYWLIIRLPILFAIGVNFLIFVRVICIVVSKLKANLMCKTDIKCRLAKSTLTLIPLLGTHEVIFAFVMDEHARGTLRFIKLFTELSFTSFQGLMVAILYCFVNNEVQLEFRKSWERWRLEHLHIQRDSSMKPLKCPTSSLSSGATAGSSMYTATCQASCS
row,Structure (SMILES),EC50 [µM]
1,"Cc1cc(-n2nc3c(c2-n2ccn(-c4ccc5c(cnn5C)c4F)c2=O)[C@H]2COC[C@@H](C3)N2C(=O)c2cc3cc([C@H]4CCOC(C)(C)C4)ccc3n2[C@@]2(c3noc(=O)[nH]3)C[C@@H]2C)cc(C)c1F [Compound 120, 3-((1S,2S)-1-(5-((S)-2,2-dimethyltetrahydro-2H-pyran-4-yl)-2-((4S,8R)-3-(3-(4-fluoro-1-methyl-1H-indazol-5-yl)-2-oxo-2,3-dihydro-1H-imidazol-1-yl)-2-(4-fluoro-3,5-dimethylphenyl)-2,4,5,7,8,9-hexahydro-4,8-epiminooxocino [5,4-c]pyrazole-10-carbonyl)-1H-indol-1-yl)-2-methylcyclopropyl)-1,2,4-oxadiazol-5(4H)-one]",> 10

# Same assay, conditions: cAMP accumulation in HEK293 expressing human GLP-1R, no BETP, 30 min room temperature (Method B1a, compounds ID 1-609), Table 1; read-out: EC50
row,Structure (SMILES),EC50 [µM]
1,"Cc1cc(-n2nc3c(c2-c2ncn(-c4ccc5c(cnn5C)c4F)c2C)[C@H](C)N(C(=O)c2cc4cc(C5CCC(F)(F)CC5)ccc4n2C2(c4noc(=O)[nH]4)CC2)CC3)cc(C)c1F [Compound 106, 3-[1-[5-(4,4-difluorocyclohexyl)-2-[(4S)-2-(4-fluoro-3,5-dimethyl-phenyl)-3-[1-(4-fluoro-1-methyl-indazol-5-yl)-5-methyl-imidazol-4-yl]-4-methyl-6,7-dihydro-4H-pyrazolo[4,3-c]pyridine-5-carbonyl]indol-1-yl]cyclopropyl]-4H-1,2,4-oxadiazol-5-one]",> 10
2,"Cc1cc(-n2nc3c(c2-c2ncn(-c4ccc5c(cnn5C)c4F)c2C)[C@H](C)N(C(=O)c2cc4cc(N5C6CCC5COC6)ccc4n2C2(c4noc(=O)[nH]4)CC2)CC3)cc(C)c1F [Compound 107, 3-[1-[2-[(4S)-2-(4-fluoro-3,5-dimethyl-phenyl)-3-[1-(4-fluoro-1-methyl-indazol-5-yl)-5-methyl-imidazol-4-yl]-4-methyl-6,7-dihydro-4H-pyrazolo[4,3-c]pyridine-5-carbonyl]-5-(3-oxa-8-azabicyclo[3.2.1]octan-8-yl)indol-1-yl]cyclopropyl]-4H-1,2,4-oxadiazol-5-one]",> 10
3,"Cc1cc(-n2nc3c(c2-c2ncn(-c4ccc5c(cnn5C)c4F)c2C)[C@H](C)N(C(=O)c2cc4cc(N5CCS(=O)(=O)CC5)ccc4n2C2(c4noc(=O)[nH]4)CC2)CC3)cc(C)c1F [Compound 108, 3-[1-[5-(1,1-dioxo-1,4-thiazinan-4-yl)-2-[(4S)-2-(4-fluoro-3,5-dimethyl-phenyl)-3-[1-(4-fluoro-1-methyl-indazol-5-yl)-5-methyl-imidazol-4-yl]-4-methyl-6,7-dihydro-4H-pyrazolo[4,3-c]pyridine-5-carbonyl]indol-1-yl]cyclopropyl]-4H-1,2,4-oxadiazol-5-one]",> 10
4,"Cc1cc(-n2nc3c(c2-n2ccn(-c4ccc5c(cnn5C)c4F)c2=O)[C@H](C)N(C(=O)c2cc4cc([C@H]5CCOC(C)(C)C5)ccc4n2C(=O)c2noc(=O)[nH]2)CC3)cc(C)c1F [Compound 115, 3-[5-[(4S)-2,2-dimethyltetrahydropyran-4-yl]-2-[(4S)-2-(4-fluoro-3,5-dimethyl-phenyl)-3-[3-(4-fluoro-1-methyl-indazol-5-yl)-2-oxo-imidazol-1-yl]-4-methyl-6,7-dihydro-4H-pyrazolo[4,3-c]pyridine-5-carbonyl]indole-1-carbonyl]-4H-1,2,4-oxadiazol-5-one]",> 10
5,"Cc1cc(-n2nc3c(c2-n2ccn(-c4ccc(C(N)=O)c(F)c4)c2=O)[C@@H]2CC[C@H](C3)N2C(=O)c2cc3cc([C@H]4CCOC(C)(C)C4)ccc3n2C2(c3noc(=O)[nH]3)CC2)cc(C)c1F [Compound 117, 4-[3-[(1S,8R)-11-[5-[(4S)-2,2-dimethyltetrahydropyran-4-yl]-1-[1-(5-oxo-4H-1,2,4-oxadiazol-3-yl)cyclopropyl]indole-2-carbonyl]-4-(4-fluoro-3,5-dimethyl-phenyl)-4,5,11-triazatricyclo[6.2.1.02,6]undeca-2,5-dien-3-yl]-2-oxo-imidazol-1-yl]-2-fluoro-benzamide]",> 10
6,"Cc1cc(-n2nc3c(c2-n2ccn(-c4ccc5c(cnn5C)c4F)c2=O)[C@H]2COC[C@@H](C3)N2C(=O)c2cc3cc([C@H]4CCOC(C)(C)C4)ccc3n2[C@@]2(c3noc(=O)[nH]3)C[C@@H]2C)cc(C)c1F [Compound 120, 3-((1S,2S)-1-(5-((S)-2,2-dimethyltetrahydro-2H-pyran-4-yl)-2-((4S,8R)-3-(3-(4-fluoro-1-methyl-1H-indazol-5-yl)-2-oxo-2,3-dihydro-1H-imidazol-1-yl)-2-(4-fluoro-3,5-dimethylphenyl)-2,4,5,7,8,9-hexahydro-4,8-epiminooxocino [5,4-c]pyrazole-10-carbonyl)-1H-indol-1-yl)-2-methylcyclopropyl)-1,2,4-oxadiazol-5(4H)-one]",> 10
7,"Cc1cc(-n2nc3c(c2-n2ccn(-c4ccc5c(cnn5C)c4F)c2=O)[C@@H]2CC[C@H](C3)N2C(=O)c2cc3cc([C@H]4CCOC(C)(C)C4)ccc3n2C(=O)c2noc(=O)[nH]2)cc(C)c1F [Compound 122, 3-[5-[(4S)-2,2-dimethyltetrahydropyran-4-yl]-2-[(1S,8R)-4-(4-fluoro-3,5-dimethyl-phenyl)-3-[3-(4-fluoro-1-methyl-indazol-5-yl)-2-oxo-imidazol-1-yl]-4,5,11-triazatricyclo[6.2.1.02,6]undeca-2,5-diene-11-carbonyl]indole-1-carbonyl]-4H-1,2,4-oxadiazol-5-one]",> 10
8,"Cc1cc(-n2nc3c(c2-n2ccn(-c4cccc(C(N)=O)c4F)c2=O)[C@@H]2CC[C@H](C3)N2C(=O)c2cc3cc([C@H]4CCOC(C)(C)C4)ccc3n2C2(c3noc(=O)[nH]3)CC2)cc(C)c1F [Compound 125, 3-[3-[(1S,8R)-11-[5-[(4S)-2,2-dimethyltetrahydropyran-4-yl]-1-[1-(5-oxo-4H-1,2,4-oxadiazol-3-yl)cyclopropyl]indole-2-carbonyl]-4-(4-fluoro-3,5-dimethyl-phenyl)-4,5,11-triazatricyclo[6.2.1.02,6]undeca-2,5-dien-3-yl]-2-oxo-imidazol-1-yl]-2-fluoro-benzamide]",> 10

# Results, then the compound that gave them:
row,EC50 [µM],Structure (SMILES)
1,> 10,"Cc1cc(-n2nc3c(c2-c2ncn(-c4ccc5c(cnn5C)c4F)c2C)[C@H](C)N(C(=O)c2cc4cc(C5=CCC(F)(F)CC5)ccc4n2C2(c4noc(=O)[nH]4)CC2)CC3)cc(C)c1F [Compound 105, 3-[1-[5-(4,4-difluorocyclohexen-1-yl)-2-[(4S)-2-(4-fluoro-3,5-dimethyl-phenyl)-3-[1-(4-fluoro-1-methyl-indazol-5-yl)-5-methyl-imidazol-4-yl]-4-methyl-6,7-dihydro-4H-pyrazolo[4,3-c]pyridine-5-carbonyl]indol-1-yl]cyclopropyl]-4H-1,2,4-oxadiazol-5-one]"
2,0.593,"Cc1cc(-n2nc3c(c2-n2ccn(-c4ccc5c(cnn5C)c4F)c2=O)[C@@H]2CC[C@H](C3)N2C(=O)c2cc3cc([C@H]4CCOC(C)(C)C4)ccc3n2C2(c3noc(=O)[nH]3)CC2)cc(C)c1F [Compound 114, 3-(1-(5-((S)-2,2-dimethyltetrahydro-2H-pyran-4-yl)-2-((4S,7R)-3-(3-(4-fluoro-1-methyl-1H-indazol-5-yl)-2-oxo-2,3-dihydro-1H-imidazol-1-yl)-2-(4-fluoro-3,5-dimethylphenyl)-2,4,5,6,7,8-hexahydro-4,7-epiminocyclohepta [c]pyrazole-9-carbonyl)-1H-indol-1-yl)cyclopropyl)-1,2,4-oxadiazol-5 (4H)-one]"
3,0.174,"Cc1cc(-n2nc3c(c2-n2ccn(-c4ccc5c(cnn5C)c4F)c2=O)C2COCC(C3)N2C(=O)c2cc3cc([C@H]4CCOC(C)(C)C4)ccc3n2[C@@]2(c3noc(=O)[nH]3)C[C@@H]2C)cc(C)c1F (stereo partly drawn) [Compound 116, 3-((1S,2S)-1-(5-((S)-2,2-dimethyltetrahydro-2H-pyran-4-yl)-2-(3-(3-(4-fluoro-1-methyl-1H-indazol-5-yl)-2-oxo-2,3-dihydro-1H-imidazol-1-yl)-2-(4-fluoro-3,5-dimethylphenyl)-2,4,5,7,8,9-hexahydro-4,8-epiminooxocino [5,4-c]pyrazole-10-carbonyl)-1H-indol-1-yl)-2-methylcyclopropyl)-1,2,4-oxadiazol-5(4H)-one]"
4,0.452,"Cc1cc(-n2nc3c(c2-n2ccn(-c4ccc5c(cnn5C)c4F)c2=O)[C@@H]2CC[C@H](C3)N2C(=O)c2cc3cc([C@H]4CCOC(C)(C)C4)ccc3n2C2(c3nnn[nH]3)CC2)cc(C)c1F [Compound 118, 1-((4S,7R)-9-(1-(1-(1H-tetrazol-5-yl)cyclopropyl)-5-((S)-2,2-dimethyltetrahydro-2H-pyran-4-yl)-1H-indole-2-carbonyl)-2-(4-fluoro-3,5-dimethylphenyl)-2,4,5,6,7,8-hexahydro-4,7-epiminocyclohepta [c]pyrazol-3-yl)-3-(4-fluoro-1-methyl-1H-indazol-5-yl)-1H-imidazol-2 (3H)-one]"
5,2.28,"Cc1cc(-n2nc3c(c2-n2ccn(-c4ccc5nnccc5c4)c2=O)[C@@H]2CC[C@H](C3)N2C(=O)c2cc3cc([C@H]4CCOC(C)(C)C4)ccc3n2C2(c3noc(=O)[nH]3)CC2)cc(C)c1F [Compound 119, 3-[1-[2-[(1S,8R)-3-(3-cinnolin-6-yl-2-oxo-imidazol-1-yl)-4-(4-fluoro-3,5-dimethyl-phenyl)-4,5,11-triazatricyclo[6.2.1.02,6]undeca-2,5-diene-11-carbonyl]-5-[(4S)-2,2-dimethyltetrahydropyran-4-yl]indol-1-yl]cyclopropyl]-4H-1,2,4-oxadiazol-5-one]"
6,1.38,"Cc1cc(-n2nc3c(c2-n2ccn(-c4ccc5cnncc5c4)c2=O)[C@@H]2CC[C@H](C3)N2C(=O)c2cc3cc([C@H]4CCOC(C)(C)C4)ccc3n2C2(c3noc(=O)[nH]3)CC2)cc(C)c1F [Compound 124, 3-(1-(5-((S)-2,2-dimethyltetrahydro-2H-pyran-4-yl)-2-((4S,7R)-2-(4-fluoro-3,5-dimethylphenyl)-3-(2-oxo-3-(phthalazin-6-yl)-2,3-dihydro-1H-imidazol-1-yl)-2,4,5,6,7,8-hexahydro-4,7-epiminocyclohepta [c]pyrazole-9-carbonyl)-1H-indol-1-yl)cyclopropyl)-1,2,4-oxadiazol-5 (4H)-one]"

# Same assay, conditions: text to Table 1d, bridge atoms configured out of the plane or toward the reader
row,Structure (SMILES),potency
1,"Cc1cc(-n2nc3c(c2-n2ccn(-c4ccc5c(cnn5C)c4F)c2=O)[C@H]2COC[C@@H](C3)N2C(=O)c2cc3cc([C@H]4CCOC(C)(C)C4)ccc3n2[C@@]2(c3noc(=O)[nH]3)C[C@@H]2C)cc(C)c1F [Compound 120, 3-((1S,2S)-1-(5-((S)-2,2-dimethyltetrahydro-2H-pyran-4-yl)-2-((4S,8R)-3-(3-(4-fluoro-1-methyl-1H-indazol-5-yl)-2-oxo-2,3-dihydro-1H-imidazol-1-yl)-2-(4-fluoro-3,5-dimethylphenyl)-2,4,5,7,8,9-hexahydro-4,8-epiminooxocino [5,4-c]pyrazole-10-carbonyl)-1H-indol-1-yl)-2-methylcyclopropyl)-1,2,4-oxadiazol-5(4H)-one]",little or no potency
